The results in this text go back to patent US8017786B2, “Substituted β-phenyl-α-hydroxy-propanoic acid, synthesis method and use thereof” (Northwest University, priority 2006, dated 2011).

For this assay, the system named is creatine kinase (CK). Kind of assay: Serum CK activity in rats with myocardial ischemia. Format: in vivo, rat. Particulars: for CK: serum, 24 h after ligation. On the procedure: At 0.5 h after the rats of these groups were administered intragastrically, the standard II lead electrocardiogram (before modeling) was recorded, and the height of ST-T segment was measured. The rats of sham operation group were then subjected to coronary artery braid without ligation, and the rats of other groups were subjected to coronary artery ligation in accordance with the following method to establish cute myocardial ischemia models. The rats were subjected to etherization, fixed at supine position, and their normal electrocardiograms (before modeling) were recorded. The skin of left thorax was incised under aseptic conditions, the 4th intercostal muscles were isolated in blunt way, the heart was extruded by light pressure to the right thorax, the left anterior descending coronary artery was ligated at a position 2˜3 mm departing from the left coronary artery origin and between the pulmonary conus and the left auricle of heart, then the heart was sent back to thorax cavity immediately and sutured the incision. Penicillin was smeared topically for the prevention of infections. After operation, the electrocardiogram of postischemia was recorded immediately (at 0 min after modeling), and the height of ST-T segment was measured.

Consider `CC1(C)C2CCC1(C)C(OC(=O)C(O)Cc1ccc(O)c(O)c1)C2` (stereo not drawn) [bornyl salvianate ester, bornyl β-(3,4-dihydroxylphenyl)-α-hydroxylpropionate ester], for which the CK (10 mg/kg intragastric) turned out to be 1214.2 ± 160.2 U/L, the CK (20 mg/kg intragastric) is listed as 894.5 ± 176.3 U/L and the CK (40 mg/kg intragastric) came out at 778.0 ± 177.1 U/L. Further, the “activity of creatine kinase (CK) (in words)” value (all dose groups, 24 h later) is recorded as “decreased”.
